# Laboratory results: PMC11979273, “A phase I study to evaluate the safety, tolerability, and pharmacokinetics of HEC113995PA·H2O, a novel dual-acting serotonergic antidepressant, in healthy subjects” (Frontiers in Pharmacology, 2025)
# Like-named read-outs stand apart in the source and are kept apart here.
# What was measured:
# 5-HT transporter = 5-HT transporter (Homo sapiens, UniProt P31645); assay: In vitro affinity and antagonistic activity for the 5-HT transporter; type: binding; settings: unpublished data
# [1] = Single ascending-dose (SAD) study, plasma pharmacokinetics; type: in vivo, human; settings: for Cmax / AUC(0-t) / k el / AUC(0-inf) / MRT / Vd/F / half-life / Tmax: both sexes, human
# Experimental: The study comprised a total of 7 dose groups (2.5, 5, 10, 20, 40, 60, and 80 mg groups, respectively). The first dose group (2.5 mg) consisted of 8 subjects, with 6 receiving HEC113995PA·H2O and 2 receiving placebo. Dose groups 2–7 each included 10 subjects, with 8 subjects receiving HEC113995PA·H2O and 2 subjects receiving placebo. Male and female participants were randomly assigned to the groups. Serial blood samples were collected before and after drug administration to determine the plasma concentration of pharmacokinetics (PK) and to evaluate the pharmacokinetic characteristics. The time points of blood collection and safety evaluation of PK in the second to seventh dose groups were adjusted based on the results of the first dose group. Drug safety and tolerability were evaluated on day 2 and 4 in the first dose group and on day 4 and 7 in the second to seventh dose groups. The trial was conducted in a dose-escalation manner, with progression to the next dose arm only after the safety of the previous arm had been evaluated. In the fourth group (20 mg group), in addition to blood samples, urine and stool samples were also collected for in vivo drug metabolic transformation studies.
# In the first dose group of single ascending-dose study, PK blood samples were collected at 0.5 h before administration and 0.5, 1, 1.5, 2, 2.5, 3, 4, 5, 6, 8, 10, 12, 24, 36, 48, and 72 h after administration. In other SAD groups, MAD groups and food effect study, PK blood samples were collected at 0.5 h before administration, and 1, 2, 3, 4, 5, 6, 7, 8, 10, 12, 24, 48, 72, 96, 120 and 144 h after administration. Approximately 4 mL of venous blood was obtained from each collection and placed in a vacuum collection vessel containing K2EDTA anticoagulant. The blood was centrifuged and packed according to the instruction provided by the Biological Sample Detection and Analysis Unit. Briefly, all samples were centrifuged at 4°C, 1,500 g for 10 min within 0.5 h after blood collection. After centrifugation, the plasma was aliquoted into two cryogenic storage tubes. The first tube (Tube A) contained at least 0.8 mL of plasma for analytical testing, and the remaining plasma is allocated into the backup tube (Tube B). The plasma samples were stored at −80°C within 1 h after aliquoting for further analysis.
# The concentration of HEC113995PA·H2O in human plasma samples (K2EDTA) was quantitatively analyzed using the LC-MS/MS method. Plasma samples (50 μL) were processed using protein precipitation with 5 μL deuterated internal standard (HEC124659) and 100 μL acetonitrile. The Shimadzu LCMS-8060 system coupled with a GL Sciences Inc. InertSustain AQ-C18 HP column (50 × 2.1 mm, 3 μm) achieved chromatographic separation through gradient elution using 0.04% TFA aqueous solution (pH 2.1) and acetonitrile at 0.4 mL/min. ESI-positive mode detection employed optimized parameters: 300°C interface temperature, 250°C DL temperature, 3 L/min nebulizer gas, and 400°C heating block temperature.
# Using WinNonlin 7.0 for non-compartmental analysis (NCA), pharmacokinetic (PK) parameters were meticulously calculated based on the actual sampling times for plasma, urine, and fecal samples from each subject post-administration. These parameters encompassed a comprehensive range, including the area under the concentration–time curve (AUC), AUC from time zero (pre-dose) to the time of the last measurable concentration (AUC0-t), and AUC from time zero (pre-dose) to infinity (AUC0-∞). Additionally, maximum observed plasma concentration (Cmax), time to achieve maximum plasma concentration (Tmax), terminal elimination half-life (t1/2), elimination rate constant (Ke), apparent volume of distribution (Vd/F), clearance rate (CL/F), and mean residence time (MRT) were also determined. The AUC0-t and AUC0-∞ values were computed using the linear trapezoidal rule method. Tmax and Cmax were ascertained based on the actual observed data. […]
# [2] = Acid-base ionization constants; type: physicochemical
# [3] = across single-dose groups 2.5–80 mg
# Sequence of 5-HT transporter (P31645 whole entry, species assumed): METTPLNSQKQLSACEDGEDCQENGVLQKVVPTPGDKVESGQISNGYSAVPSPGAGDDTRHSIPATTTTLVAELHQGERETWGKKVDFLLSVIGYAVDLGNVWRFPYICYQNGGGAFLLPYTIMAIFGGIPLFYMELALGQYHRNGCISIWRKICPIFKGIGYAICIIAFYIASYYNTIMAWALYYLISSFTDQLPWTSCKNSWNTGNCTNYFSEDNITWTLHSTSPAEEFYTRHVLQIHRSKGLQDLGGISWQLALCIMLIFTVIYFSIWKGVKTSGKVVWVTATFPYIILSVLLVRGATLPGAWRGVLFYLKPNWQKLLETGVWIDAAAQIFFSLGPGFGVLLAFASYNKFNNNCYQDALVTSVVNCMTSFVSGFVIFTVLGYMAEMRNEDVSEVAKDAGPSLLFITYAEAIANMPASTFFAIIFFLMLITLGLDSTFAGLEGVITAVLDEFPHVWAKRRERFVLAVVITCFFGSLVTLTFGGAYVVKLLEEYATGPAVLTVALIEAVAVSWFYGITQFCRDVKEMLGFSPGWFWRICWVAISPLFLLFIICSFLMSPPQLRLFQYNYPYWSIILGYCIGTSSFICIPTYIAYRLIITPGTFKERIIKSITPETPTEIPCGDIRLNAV
structure (smiles),measurement,setting,value
Cc1nc(-c2cnc(N3CCN(CCCc4c[nH]c5ccc(C#N)cc45)CC3)nc2)sc1C(N)=O [HEC113995PA·H2O],affinity and antagonistic activity for the 5-HT transporter,5-HT transporter,at the nanomolar level
same,Cl/F,"[1]; SAD single dose 2.5 mg, N = 6, mean (SD)",12.03 (3.52) L/h
same,Cl/F,"[1]; SAD single dose 5 mg, N = 8, mean (SD)",10.94 (1.75) L/h
same,Cl/F,"[1]; SAD single dose 10 mg, N = 8, mean (SD)",12.65 (3.13) L/h
same,Cl/F,"[1]; SAD single dose 20 mg, N = 8, mean (SD)",14.53 (5.78) L/h
same,Cl/F,"[1]; SAD single dose 40 mg, N = 8, mean (SD)",14.14 (4.06) L/h
same,Cl/F,"[1]; SAD single dose 60 mg, N = 8, mean (SD)",15.07 (4.58) L/h
same,Cl/F,"[1]; SAD single dose 80 mg, N = 8, mean (SD)",14 (2.41) L/h
same,"apparent clearance (CL/F), range of arithmetic means",[1]; [3],10.9380 to 15.0736 L/h
same,"elimination rate constant (Kel), range of arithmetic means",[1]; [3],0.0187 to 0.0256 h⁻¹
same,Cmax,"[1]; oral, SAD single dose 2.5 mg, N = 6, plasma, mean (SD), read-out: Cmax",5.27 ng/mL
same,Cmax,"[1]; oral, SAD single dose 5 mg, N = 8, plasma, mean (SD), read-out: Cmax",14 ng/mL
same,Cmax,"[1]; oral, SAD single dose 10 mg, N = 8, plasma, mean (SD), read-out: Cmax",24.4 ng/mL
same,Cmax,"[1]; oral, SAD single dose 20 mg, N = 8, plasma, mean (SD), read-out: Cmax",40.6 ng/mL
same,Cmax,"[1]; oral, SAD single dose 40 mg, N = 8, plasma, mean (SD), read-out: Cmax",88.5 ng/mL
same,Cmax,"[1]; oral, SAD single dose 60 mg, N = 8, plasma, mean (SD), read-out: Cmax",149 ng/mL
same,Cmax,"[1]; oral, SAD single dose 80 mg, N = 8, plasma, mean (SD), read-out: Cmax",164 ng/mL
same,AUC(0-t),"[1]; plasma, oral, 2.5 mg, SAD single dose 2.5 mg, N = 6, mean (SD), read-out: AUC0-t",177 ng·h/mL
same,AUC(0-t),"[1]; plasma, oral, 5 mg, SAD single dose 5 mg, N = 8, mean (SD), read-out: AUC0-t",439 ng·h/mL
same,AUC(0-t),"[1]; plasma, oral, 10 mg, SAD single dose 10 mg, N = 8, mean (SD), read-out: AUC0-t",801 ng·h/mL
same,AUC(0-t),"[1]; plasma, oral, 20 mg, SAD single dose 20 mg, N = 8, mean (SD), read-out: AUC0-t",1450 ng·h/mL
same,AUC(0-t),"[1]; plasma, oral, 40 mg, SAD single dose 40 mg, N = 8, mean (SD), read-out: AUC0-t",2910 ng·h/mL
same,AUC(0-t),"[1]; plasma, oral, 60 mg, SAD single dose 60 mg, N = 8, mean (SD), read-out: AUC0-t",4100 ng·h/mL
same,AUC(0-t),"[1]; plasma, oral, 80 mg, SAD single dose 80 mg, N = 8, mean (SD), read-out: AUC0-t",5650 ng·h/mL
same,k el,"[1]; plasma, oral, SAD single dose 2.5 mg, N = 6, mean (SD)",6.39e-06 s⁻¹
same,AUC(0-inf),"[1]; plasma, oral, SAD single dose 2.5 mg, N = 6, mean (SD), read-out: AUC0-∞",220 ng·h/mL
same,MRT,"[1]; plasma, oral, SAD single dose 2.5 mg, N = 6, mean (SD), read-out: MRT",44.8 h
same,Vd/F,"[1]; plasma, oral, SAD single dose 2.5 mg, N = 6, mean (SD), read-out: Vz/F",518 L
same,half-life,"[1]; plasma, oral, SAD single dose 2.5 mg, N = 6, mean (SD), read-out: t1/2 (converted)",30.3 h
same,Tmax,"[1]; plasma, oral, SAD single dose 2.5 mg, N = 6, median (min, max), read-out: Tmax",6 h
same,k el,"[1]; plasma, oral, SAD single dose 5 mg, N = 8, mean (SD)",7.11e-06 s⁻¹
same,AUC(0-inf),"[1]; plasma, oral, SAD single dose 5 mg, N = 8, mean (SD), read-out: AUC0-∞",467 ng·h/mL
same,MRT,"[1]; plasma, oral, SAD single dose 5 mg, N = 8, mean (SD), read-out: MRT",39.8 h
same,Vd/F,"[1]; plasma, oral, SAD single dose 5 mg, N = 8, mean (SD), read-out: Vz/F",430 L
same,half-life,"[1]; plasma, oral, SAD single dose 5 mg, N = 8, mean (SD), read-out: t1/2 (converted)",27.2 h
same,Tmax,"[1]; plasma, oral, SAD single dose 5 mg, N = 8, median (min, max), read-out: Tmax",5 h
same,k el,"[1]; plasma, oral, SAD single dose 10 mg, N = 8, mean (SD)",7.11e-06 s⁻¹
same,AUC(0-inf),"[1]; plasma, oral, SAD single dose 10 mg, N = 8, mean (SD), read-out: AUC0-∞",832 ng·h/mL
same,MRT,"[1]; plasma, oral, SAD single dose 10 mg, N = 8, mean (SD), read-out: MRT",39.1 h
same,Vd/F,"[1]; plasma, oral, SAD single dose 10 mg, N = 8, mean (SD), read-out: Vz/F",494 L
same,half-life,"[1]; plasma, oral, SAD single dose 10 mg, N = 8, mean (SD), read-out: t1/2 (converted)",28 h
same,Tmax,"[1]; plasma, oral, SAD single dose 10 mg, N = 8, median (min, max), read-out: Tmax",6 h
same,k el,"[1]; plasma, oral, SAD single dose 20 mg, N = 8, mean (SD)",5.19e-06 s⁻¹
same,AUC(0-inf),"[1]; plasma, oral, SAD single dose 20 mg, N = 8, mean (SD), read-out: AUC0-∞",1520 ng·h/mL
same,MRT,"[1]; plasma, oral, SAD single dose 20 mg, N = 8, mean (SD), read-out: MRT",42.2 h
same,Vd/F,"[1]; plasma, oral, SAD single dose 20 mg, N = 8, mean (SD), read-out: Vz/F",772 L
same,half-life,"[1]; plasma, oral, SAD single dose 20 mg, N = 8, mean (SD), read-out: t1/2 (converted)",38.6 h
same,Tmax,"[1]; plasma, oral, SAD single dose 20 mg, N = 8, median (min, max), read-out: Tmax",8 h
same,k el,"[1]; plasma, oral, SAD single dose 40 mg, N = 8, mean (SD)",6.08e-06 s⁻¹
same,AUC(0-inf),"[1]; plasma, oral, SAD single dose 40 mg, N = 8, mean (SD), read-out: AUC0-∞",3010 ng·h/mL
same,MRT,"[1]; plasma, oral, SAD single dose 40 mg, N = 8, mean (SD), read-out: MRT",38.1 h
same,Vd/F,"[1]; plasma, oral, SAD single dose 40 mg, N = 8, mean (SD), read-out: Vz/F",661 L
same,half-life,"[1]; plasma, oral, SAD single dose 40 mg, N = 8, mean (SD), read-out: t1/2 (converted)",32.2 h
same,Tmax,"[1]; plasma, oral, SAD single dose 40 mg, N = 8, median (min, max), read-out: Tmax",5 h
same,k el,"[1]; plasma, oral, SAD single dose 60 mg, N = 8, mean (SD)",6.11e-06 s⁻¹
same,AUC(0-inf),"[1]; plasma, oral, SAD single dose 60 mg, N = 8, mean (SD), read-out: AUC0-∞",4240 ng·h/mL
same,MRT,"[1]; plasma, oral, SAD single dose 60 mg, N = 8, mean (SD), read-out: MRT",35.3 h
same,Vd/F,"[1]; plasma, oral, SAD single dose 60 mg, N = 8, mean (SD), read-out: Vz/F",762 L
same,half-life,"[1]; plasma, oral, SAD single dose 60 mg, N = 8, mean (SD), read-out: t1/2 (converted)",36.6 h
same,Tmax,"[1]; plasma, oral, SAD single dose 60 mg, N = 8, median (min, max), read-out: Tmax",5.5 h
same,k el,"[1]; plasma, oral, SAD single dose 80 mg, N = 8, mean (SD)",6.08e-06 s⁻¹
same,AUC(0-inf),"[1]; plasma, oral, SAD single dose 80 mg, N = 8, mean (SD), read-out: AUC0-∞",5870 ng·h/mL
same,MRT,"[1]; plasma, oral, SAD single dose 80 mg, N = 8, mean (SD), read-out: MRT",40.5 h
same,Vd/F,"[1]; plasma, oral, SAD single dose 80 mg, N = 8, mean (SD), read-out: Vz/F",666 L
same,half-life,"[1]; plasma, oral, SAD single dose 80 mg, N = 8, mean (SD), read-out: t1/2 (converted)",33.4 h
same,Tmax,"[1]; plasma, oral, SAD single dose 80 mg, N = 8, median (min, max), read-out: Tmax",6 h
same,AUC(0-t),"[1]; plasma, oral, across single-dose groups 2.5–80 mg, read-out: AUC0-t, geometric mean range",172 to 5580 ng·h/mL
same,AUC(0-inf),"[1]; plasma, oral, across single-dose groups 2.5–80 mg, read-out: AUC0-∞, geometric mean range",214 to 5790 ng·h/mL
same,AUC(0-t),"[1]; plasma, oral, across single-dose groups 2.5–80 mg, read-out: AUC0–24h, geometric mean range",88.4 to 2680 ng·h/mL
same,Cmax,"[1]; plasma, oral, across single-dose groups 2.5–80 mg, read-out: Cmax, geometric mean range",5.1 to 157 ng/mL
same,Vd/F,"[1]; plasma, oral, across single-dose groups 2.5–80 mg, read-out: apparent volume of distribution (Vz/F), range of arithmetic means",430 to 772 L
same,half-life,"[1]; plasma, oral, across single-dose groups 2.5–80 mg, read-out: half-life (t1/2), range of arithmetic means",27.2 to 38.6 h
same,MRT,"[1]; plasma, oral, across single-dose groups 2.5–80 mg, read-out: mean residence time (MRT), range of arithmetic means",35.3 to 44.8 h
same,Tmax,"[1]; plasma, oral, across single-dose groups 2.5–80 mg, read-out: median time to peak plasma concentration (Tmax), range",5 to 8 h
same,AUC(0-inf),"[1]; plasma, po, SAD single dose 20 mg, N = 8, mean (SD), read-out: AUC0-∞",1520 ng·h/mL
same,Cmax higher than Vilazodone,[1]; equivalent 20 mg doses (40.6 vs. 28.5 ng/mL),42%
same,AUC0-∞ greater than Vilazodone,"[1]; equivalent 20 mg doses (1,519.6 vs. 502 h ng/mL)",threefold greater
same,pKa,[2]; read-out: acid-base ionization constant pKa1,6.46
same,pKa,[2]; read-out: acid-base ionization constant pKa2,7.37
